Read-outs that look alike come from different tables or passages of the source.
Columns and labels:
MAGL = molecular target: T1, MAGL (Homo sapiens, UniProt Q99685); assay: MAGL inhibitory assay; type: biochemical
T1 construct: purchased Cayman 10007812
T1 sequence (Q99685 1-303): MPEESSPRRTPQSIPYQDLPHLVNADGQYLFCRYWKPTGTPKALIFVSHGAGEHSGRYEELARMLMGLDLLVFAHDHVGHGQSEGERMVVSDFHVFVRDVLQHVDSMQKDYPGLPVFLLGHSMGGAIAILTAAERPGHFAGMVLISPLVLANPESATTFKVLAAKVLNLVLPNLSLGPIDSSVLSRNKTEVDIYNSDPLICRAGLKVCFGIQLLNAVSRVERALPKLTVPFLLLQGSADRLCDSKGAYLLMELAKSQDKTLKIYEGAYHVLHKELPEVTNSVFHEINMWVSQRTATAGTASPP
Experimental: Each study was performed in duplicate and the results averaged.
The final concentration in each well was 10 μl of sample, 5.6 μM MAGL (Cayman Catalog #10007812) and 23.6 μM 2-Arachidonoyl Glycerol (Cayman catalog #62160).

HDAC2 = HDAC2 (Homo sapiens, UniProt Q92769)
Experimental: (§1) Test materials were stored at room temperature and stock solutions were prepared at 20 mg/ml in DMSO. Further dilutions were made in sterile distilled water immediately before being added to the reaction mixture containing a substrate, and the reaction was triggered by the addition of purified HDAC enzymes, Double distilled water was the negative control and trichostatin (1.5 ug/ml) was used as a positive control for validation of each study. The test procedure was as directed in the assay kits. The products of the reactions were measured by fluorometry at ex/em 350/450 nm using multi-well plate fluorometer Cytofluor 4000 (Applied Biosystem, Foster City, CA) or using SpectraMax i3× Multi-Mode Detection Platform from Molecular Devices (Sunnyvale, CA).
(§2) Statistical significance was assessed with a two-tail Student test. Deviations of ≤20% as compared to water control with p values below 0.05 were considered statistically significant.

HDAC 3 = HDAC 3 (Homo sapiens, UniProt O15379)
Experimental: as §1, §2

FAAH = molecular target: T2, FAAH (Homo sapiens, UniProt O00519); assay: FAAH fluorescence-based inhibitory assay; type: biochemical
T2 sequence (O00519 1-579): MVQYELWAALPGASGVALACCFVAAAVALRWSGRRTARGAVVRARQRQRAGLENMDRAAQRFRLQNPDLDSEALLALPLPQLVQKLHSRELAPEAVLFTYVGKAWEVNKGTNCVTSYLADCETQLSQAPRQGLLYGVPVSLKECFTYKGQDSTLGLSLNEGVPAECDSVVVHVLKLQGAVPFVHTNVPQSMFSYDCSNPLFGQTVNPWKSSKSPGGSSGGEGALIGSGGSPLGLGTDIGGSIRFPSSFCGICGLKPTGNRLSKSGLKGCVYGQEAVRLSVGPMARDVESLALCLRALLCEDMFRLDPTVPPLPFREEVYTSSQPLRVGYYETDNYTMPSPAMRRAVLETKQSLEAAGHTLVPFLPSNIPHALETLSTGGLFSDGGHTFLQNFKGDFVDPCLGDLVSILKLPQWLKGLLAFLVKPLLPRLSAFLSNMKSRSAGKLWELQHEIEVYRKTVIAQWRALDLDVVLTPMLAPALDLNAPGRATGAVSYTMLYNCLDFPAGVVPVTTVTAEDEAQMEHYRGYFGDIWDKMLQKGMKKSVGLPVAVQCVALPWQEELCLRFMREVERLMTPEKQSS

HDAC10 = molecular target: T3, HDAC10 (Homo sapiens, UniProt Q969S8)
T3 sequence (Q969S8 1-669): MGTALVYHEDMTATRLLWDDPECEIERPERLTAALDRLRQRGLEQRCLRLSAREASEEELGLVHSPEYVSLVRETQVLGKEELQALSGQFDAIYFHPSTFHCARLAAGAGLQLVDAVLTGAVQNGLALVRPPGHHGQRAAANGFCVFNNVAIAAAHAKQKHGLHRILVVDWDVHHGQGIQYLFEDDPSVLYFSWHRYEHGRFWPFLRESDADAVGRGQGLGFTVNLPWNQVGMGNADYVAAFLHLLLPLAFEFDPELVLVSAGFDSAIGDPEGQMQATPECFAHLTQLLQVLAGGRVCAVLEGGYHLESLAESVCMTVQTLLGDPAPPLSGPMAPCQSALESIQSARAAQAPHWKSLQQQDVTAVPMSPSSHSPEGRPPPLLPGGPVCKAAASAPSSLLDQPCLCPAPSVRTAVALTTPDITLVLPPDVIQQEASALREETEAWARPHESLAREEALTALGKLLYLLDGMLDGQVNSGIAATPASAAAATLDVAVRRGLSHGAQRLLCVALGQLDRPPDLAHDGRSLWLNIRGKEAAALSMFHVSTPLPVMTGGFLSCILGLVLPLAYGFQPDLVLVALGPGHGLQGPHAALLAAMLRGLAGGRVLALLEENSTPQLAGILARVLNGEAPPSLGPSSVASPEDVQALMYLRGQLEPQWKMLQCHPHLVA
Experimental: as §1, §2

HDAC 11 = molecular target: T4, HDAC 11 (Homo sapiens, UniProt Q96DB2); assay: HDAC 11 fluorogenic assay kit; type: biochemical
T4 construct: purchased BPS Biosciences 50687
T4 sequence (Q96DB2 1-347): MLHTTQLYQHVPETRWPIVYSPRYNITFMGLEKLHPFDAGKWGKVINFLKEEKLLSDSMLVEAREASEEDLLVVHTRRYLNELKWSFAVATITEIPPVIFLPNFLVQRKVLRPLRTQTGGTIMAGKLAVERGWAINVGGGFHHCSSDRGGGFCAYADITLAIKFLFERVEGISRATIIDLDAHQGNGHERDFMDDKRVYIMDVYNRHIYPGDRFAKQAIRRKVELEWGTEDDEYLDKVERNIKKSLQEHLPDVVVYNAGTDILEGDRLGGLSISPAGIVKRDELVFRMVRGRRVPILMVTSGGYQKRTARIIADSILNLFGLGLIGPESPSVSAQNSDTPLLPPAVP
Experimental: as §1, §2

HDAC 5 = HDAC 5 (Homo sapiens, UniProt Q9UQL6)
Experimental: as §1, §2

FABP-3 = molecular target: T5, FABP-3 (Homo sapiens, UniProt P05413); assay: FABP-3 ELISA inhibitory assay; type: biochemical
T5 construct: purchased Neovateinbio PT-452

HDAC 4 = HDAC 4 (Homo sapiens, UniProt P56524); assay: HDAC 4 fluorogenic assay kit
Experimental: as §1, §2

HDAC1 = HDAC1 (Homo sapiens, UniProt Q13547); assay: HDAC 1 fluorogenic assay kit
Sequence of HDAC1 (Q13547 whole entry): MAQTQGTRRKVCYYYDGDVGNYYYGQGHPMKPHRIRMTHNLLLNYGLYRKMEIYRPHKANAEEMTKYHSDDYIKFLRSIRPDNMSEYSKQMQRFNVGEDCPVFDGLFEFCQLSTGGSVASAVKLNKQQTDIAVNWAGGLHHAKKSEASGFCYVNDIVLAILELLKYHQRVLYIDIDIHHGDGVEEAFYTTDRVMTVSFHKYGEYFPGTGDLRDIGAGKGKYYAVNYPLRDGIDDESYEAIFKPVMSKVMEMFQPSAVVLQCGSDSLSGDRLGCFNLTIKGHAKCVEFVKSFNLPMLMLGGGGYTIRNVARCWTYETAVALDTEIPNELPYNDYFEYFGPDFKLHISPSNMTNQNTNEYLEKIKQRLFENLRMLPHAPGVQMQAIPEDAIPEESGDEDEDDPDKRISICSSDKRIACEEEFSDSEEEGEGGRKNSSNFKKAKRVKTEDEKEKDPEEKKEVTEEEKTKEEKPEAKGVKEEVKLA
Experimental: as §1, §2

Sequence of HDAC 3 (O15379 whole entry): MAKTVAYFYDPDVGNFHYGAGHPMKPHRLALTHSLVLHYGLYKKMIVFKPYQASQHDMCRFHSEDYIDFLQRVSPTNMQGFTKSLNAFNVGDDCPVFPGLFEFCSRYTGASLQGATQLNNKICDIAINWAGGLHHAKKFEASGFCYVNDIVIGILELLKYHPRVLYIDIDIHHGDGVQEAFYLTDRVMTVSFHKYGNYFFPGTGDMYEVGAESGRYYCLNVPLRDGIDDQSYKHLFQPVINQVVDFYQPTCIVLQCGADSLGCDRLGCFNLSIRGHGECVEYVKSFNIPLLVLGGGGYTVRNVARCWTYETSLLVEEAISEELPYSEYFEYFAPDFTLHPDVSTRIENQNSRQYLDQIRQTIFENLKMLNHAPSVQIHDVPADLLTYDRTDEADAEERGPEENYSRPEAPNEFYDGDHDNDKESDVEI
Sequence of HDAC 3 (Q9Y618 395-489 partner limits assumed): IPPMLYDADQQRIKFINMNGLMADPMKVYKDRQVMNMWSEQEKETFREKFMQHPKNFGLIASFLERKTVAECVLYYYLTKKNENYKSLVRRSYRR
Sequence of HDAC2 (Q92769 whole entry): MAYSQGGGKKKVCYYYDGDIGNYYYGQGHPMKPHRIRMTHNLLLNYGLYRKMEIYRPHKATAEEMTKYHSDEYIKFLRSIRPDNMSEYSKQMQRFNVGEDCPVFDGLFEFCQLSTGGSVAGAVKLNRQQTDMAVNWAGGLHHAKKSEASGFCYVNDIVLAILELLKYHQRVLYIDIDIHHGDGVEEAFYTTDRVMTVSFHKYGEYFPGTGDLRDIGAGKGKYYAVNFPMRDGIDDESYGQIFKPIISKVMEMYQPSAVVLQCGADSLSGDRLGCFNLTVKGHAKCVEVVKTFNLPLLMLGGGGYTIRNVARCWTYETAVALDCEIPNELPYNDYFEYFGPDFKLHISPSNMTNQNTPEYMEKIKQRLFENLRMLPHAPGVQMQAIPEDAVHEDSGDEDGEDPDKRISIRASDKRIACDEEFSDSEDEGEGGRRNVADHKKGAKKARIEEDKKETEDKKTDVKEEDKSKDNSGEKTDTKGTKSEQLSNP
Sequence of HDAC 5 (Q9UQL6 whole entry): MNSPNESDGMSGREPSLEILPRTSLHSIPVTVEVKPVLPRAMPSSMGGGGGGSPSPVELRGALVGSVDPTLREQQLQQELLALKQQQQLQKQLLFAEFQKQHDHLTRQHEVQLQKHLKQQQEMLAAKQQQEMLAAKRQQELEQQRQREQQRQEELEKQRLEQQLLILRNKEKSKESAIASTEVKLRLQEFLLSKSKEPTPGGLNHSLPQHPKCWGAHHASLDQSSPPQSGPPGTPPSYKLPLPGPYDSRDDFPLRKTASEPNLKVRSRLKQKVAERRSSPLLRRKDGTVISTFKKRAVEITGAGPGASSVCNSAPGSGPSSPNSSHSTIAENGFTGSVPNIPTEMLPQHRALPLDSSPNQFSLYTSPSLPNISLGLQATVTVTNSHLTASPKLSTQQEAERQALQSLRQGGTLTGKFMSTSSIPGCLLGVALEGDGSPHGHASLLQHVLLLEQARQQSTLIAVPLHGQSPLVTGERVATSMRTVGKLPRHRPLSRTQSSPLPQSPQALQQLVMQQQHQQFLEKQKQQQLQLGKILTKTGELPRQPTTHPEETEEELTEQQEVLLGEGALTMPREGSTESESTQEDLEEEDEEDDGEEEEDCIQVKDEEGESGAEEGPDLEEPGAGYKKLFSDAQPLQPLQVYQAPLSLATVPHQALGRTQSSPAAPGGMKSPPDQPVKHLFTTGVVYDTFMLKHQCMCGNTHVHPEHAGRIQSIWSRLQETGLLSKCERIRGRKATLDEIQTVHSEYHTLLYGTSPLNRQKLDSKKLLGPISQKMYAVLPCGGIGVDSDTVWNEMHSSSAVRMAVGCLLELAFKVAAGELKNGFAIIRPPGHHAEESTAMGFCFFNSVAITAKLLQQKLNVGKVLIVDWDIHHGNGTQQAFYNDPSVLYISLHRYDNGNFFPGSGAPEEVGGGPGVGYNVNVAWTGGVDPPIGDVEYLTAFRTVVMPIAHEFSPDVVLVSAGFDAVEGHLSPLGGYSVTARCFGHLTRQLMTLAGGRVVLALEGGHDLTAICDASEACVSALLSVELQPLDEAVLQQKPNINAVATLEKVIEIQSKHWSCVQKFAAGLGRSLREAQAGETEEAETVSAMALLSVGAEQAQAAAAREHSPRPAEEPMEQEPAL
Sequence of HDAC 4 (P56524 whole entry): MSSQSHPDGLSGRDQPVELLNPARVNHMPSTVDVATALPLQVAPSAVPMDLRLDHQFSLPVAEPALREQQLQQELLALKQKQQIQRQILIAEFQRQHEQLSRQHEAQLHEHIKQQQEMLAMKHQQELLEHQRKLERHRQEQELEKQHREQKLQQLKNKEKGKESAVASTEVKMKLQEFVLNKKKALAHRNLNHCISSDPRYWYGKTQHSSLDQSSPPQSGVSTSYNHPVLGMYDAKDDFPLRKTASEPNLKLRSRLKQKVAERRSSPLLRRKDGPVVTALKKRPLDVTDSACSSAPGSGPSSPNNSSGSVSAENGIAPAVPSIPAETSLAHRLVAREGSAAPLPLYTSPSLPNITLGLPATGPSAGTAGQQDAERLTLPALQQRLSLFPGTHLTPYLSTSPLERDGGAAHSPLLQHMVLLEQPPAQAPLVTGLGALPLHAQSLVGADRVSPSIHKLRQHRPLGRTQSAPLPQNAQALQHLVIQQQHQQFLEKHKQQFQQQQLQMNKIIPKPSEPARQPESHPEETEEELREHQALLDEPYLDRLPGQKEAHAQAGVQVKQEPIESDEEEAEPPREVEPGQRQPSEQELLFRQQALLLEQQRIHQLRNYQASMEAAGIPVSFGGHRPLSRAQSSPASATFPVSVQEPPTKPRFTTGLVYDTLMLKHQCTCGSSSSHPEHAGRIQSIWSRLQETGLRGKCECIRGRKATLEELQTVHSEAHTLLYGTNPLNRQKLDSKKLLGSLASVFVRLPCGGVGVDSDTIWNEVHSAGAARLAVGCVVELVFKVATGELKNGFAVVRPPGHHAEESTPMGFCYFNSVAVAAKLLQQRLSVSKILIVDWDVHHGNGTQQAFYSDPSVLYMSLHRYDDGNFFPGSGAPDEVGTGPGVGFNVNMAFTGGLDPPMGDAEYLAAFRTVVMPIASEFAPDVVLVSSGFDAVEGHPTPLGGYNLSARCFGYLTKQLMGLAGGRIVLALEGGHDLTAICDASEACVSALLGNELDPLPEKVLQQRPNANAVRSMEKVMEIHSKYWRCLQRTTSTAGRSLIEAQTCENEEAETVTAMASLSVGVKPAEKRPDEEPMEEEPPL
T5 sequence (P05413 whole entry): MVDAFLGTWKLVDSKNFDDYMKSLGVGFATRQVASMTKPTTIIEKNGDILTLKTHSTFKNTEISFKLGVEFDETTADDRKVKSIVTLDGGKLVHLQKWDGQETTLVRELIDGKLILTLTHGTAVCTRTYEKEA

CCCC(=O)NCCCC[C@H](NC(=O)CCC)C(=O)[O-].CCCC(=O)NCCCC[C@H](NC(=O)CCC)C(=O)[O-].[Zn+2] [Zn di-(di-n-butyryl lysinate), Zinc di-(di-n-butyryl lysinate)]
MAGL IC50 (MAGL): 88.8 µg/mL | HDAC 2 activity, % of water-treated controls (HDAC2; 25 ug/ml): 20% | HDAC 2 activity, % of water-treated controls (HDAC2; 50 ug/ml): 20% | HDAC 2 activity, % of water-treated controls (HDAC2; 100 ug/ml): 17% | HDAC 2 activity, % of water-treated controls (HDAC2; 200 ug/ml): 15% | HDAC 3 activity, % of water-treated controls (HDAC 3; 25 ug/ml): 14% | HDAC 3 activity, % of water-treated controls (HDAC 3; 50 ug/ml): 5% | HDAC 3 activity, % of water-treated controls (HDAC 3; 200 ug/ml): 4% | FAAH IC50 (FAAH): 368.7 µg/mL | HDAC 10 activity, % of water-treated controls (HDAC10; 5 ug/ml): 21% | HDAC 10 activity, % of water-treated controls (HDAC10; 25 ug/ml): 15% | HDAC 10 activity, % of water-treated controls (HDAC10; 50 ug/ml): 13% | HDAC 10 activity, % of water-treated controls (HDAC10; 100 ug/ml): 9% | HDAC 10 activity, % of water-treated controls (HDAC10; 200 ug/ml): 7% | HDAC 11 activity, % of water-treated controls (HDAC 11; 5 ug/ml): 102% | HDAC 11 activity, % of water-treated controls (HDAC 11; 25 ug/ml): 63% | HDAC 11 activity, % of water-treated controls (HDAC 11; 50 ug/ml): 17% | HDAC 11 activity, % of water-treated controls (HDAC 11; 100 ug/ml): 22% | HDAC 11 activity, % of water-treated controls (HDAC 11; 200 ug/ml): 43% | HDAC 5 activity, % of water-treated controls (HDAC 5; 25 ug/ml): 89% | HDAC 5 activity, % of water-treated controls (HDAC 5; 50 ug/ml): 65% | HDAC 5 activity, % of water-treated controls (HDAC 5; 100 ug/ml): 33% | HDAC 5 activity, % of water-treated controls (HDAC 5; 200 ug/ml): 17% | FABP-3 IC50 (FABP-3): 242.4 µg/mL | HDAC 4 activity, % of water-treated controls (HDAC 4; 25 ug/ml): 120% | HDAC 4 activity, % of water-treated controls (HDAC 4; 50 ug/ml): 60% | HDAC 4 activity, % of water-treated controls (HDAC 4; 100 ug/ml): 39% | HDAC 1 activity, % of water-treated controls (HDAC1; 5 ug/ml): 30% | HDAC 1 activity, % of water-treated controls (HDAC1; 25 ug/ml): 32% | HDAC 1 activity, % of water-treated controls (HDAC1; 50 ug/ml): 38% | HDAC 1 activity, % of water-treated controls (HDAC1; 100 ug/ml): 49% | HDAC 1 activity, % of water-treated controls (HDAC1; 200 ug/ml): 45%

Zinc Di-lysinate [Zn dilysinate]
MAGL IC50 (MAGL): 207.0 µg/mL | HDAC 2 activity, % of water-treated controls (HDAC2; 25 ug/ml): 12% | HDAC 2 activity, % of water-treated controls (HDAC2; 50 ug/ml): 1% | HDAC 2 activity, % of water-treated controls (HDAC2; 100 ug/ml): 1% | HDAC 2 activity, % of water-treated controls (HDAC2; 200 ug/ml): 9% | HDAC 3 activity, % of water-treated controls (HDAC 3; 10 ug/ml): 18% | HDAC 3 activity, % of water-treated controls (HDAC 3; 50 ug/ml): 8% | HDAC 3 activity, % of water-treated controls (HDAC 3; 200 ug/ml): 5% | FAAH IC50 (FAAH): 791.8 µg/mL | HDAC 10 activity, % of water-treated controls (HDAC10; 25 ug/ml): 19% | HDAC 10 activity, % of water-treated controls (HDAC10; 50 ug/ml): 12% | HDAC 10 activity, % of water-treated controls (HDAC10; 100 ug/ml): 9% | HDAC 10 activity, % of water-treated controls (HDAC10; 200 ug/ml): 6% | HDAC 11 activity, % of water-treated controls (HDAC 11; 25 ug/ml): 91% | HDAC 11 activity, % of water-treated controls (HDAC 11; 50 ug/ml): 84% | HDAC 11 activity, % of water-treated controls (HDAC 11; 100 ug/ml): 47% | HDAC 11 activity, % of water-treated controls (HDAC 11; 200 ug/ml): 38% | HDAC 5 activity, % of water-treated controls (HDAC 5; 25 ug/ml): 73% | HDAC 5 activity, % of water-treated controls (HDAC 5; 50 ug/ml): 52% | HDAC 5 activity, % of water-treated controls (HDAC 5; 100 ug/ml): 31% | HDAC 5 activity, % of water-treated controls (HDAC 5; 200 ug/ml): 14% | FABP-3 IC50 (FABP-3): 255.2 µg/mL | HDAC 4 activity, % of water-treated controls (HDAC 4; 25 ug/ml): 100% | HDAC 4 activity, % of water-treated controls (HDAC 4; 50 ug/ml): 92% | HDAC 4 activity, % of water-treated controls (HDAC 4; 100 ug/ml): 63% | HDAC 1 activity, % of water-treated controls (HDAC1; 25 ug/ml): 52% | HDAC 1 activity, % of water-treated controls (HDAC1; 50 ug/ml): 44% | HDAC 1 activity, % of water-treated controls (HDAC1; 100 ug/ml): 32%

Source: patent US20260041620A1, “NOVEL AMINO ACID BASED SALTS, COMPOSITIONS AND METHODS FOR TREATING SKIN AND IMPROVING SKIN REJUVENATION AND LONGEVITY” (Sytheon Ltd, priority 2023, published 2026)
